Laboratory results taken from patent US20130040331A1, “LABEL-FREE METHODS RELATED TO hERG POTASSIUM ION [sequence]” (CORNING INCORPORATED, priority 2009, published 2013).

Legend:
hERG channel [1] = biological target: T1, hERG channel (Homo sapiens, UniProt Q12809); experiment: Rb+ flux assay using HEK-hERG cells; conditions: for effect on hERG ion flux (Rb+ flux, FIG. 6): HEK-hERG cells, overall statement, KCl and concentration not specified
Procedure: Briefly, 50,000 cells per well were plated in 96-well tissue culture treated plates 20 hours before assay. In the next day, cells were incubated with complete cell culture medium containing 5 mM RbCl for 3 hours at 37° C. with 5% CO2. Then compounds (10×) diluted in HBSS were added into the cell culture medium and cells were incubated at 37° C. with 5% CO2 for another hour. Cells were washed twice with Rb^+ free cell culture medium and incubated with 180 μl/well of cell culture medium containing different concentration of KCl for exactly 10 minutes. The supernatant from each well was transferred to a new 96 well plate immediately. Cells were lysed with 180 μl/well 0.5% Triton-100 in HBSS. The Rb^+ concentration of each sample was determined by ICR8000 (Aurora Biomed Inc.).

hERG channel [2] = biological target: T1, hERG channel; experiment: Automated patch clamp recording of hERG current using IonWorks, CHO-hERG cells; conditions: for effect on hERG tail current: 50 μM, tail current at return to −35 mV; for effect on hERG current: final compound concentration 50 μM
Procedure: CHO—K1 cells stably expressing hERG channel (CHO-hERG) were cultured in T175 flask till about 70% confluent. Cells were washed twice with PBS, then 2.5 ml 0.25% Trypsin/EDTA was mixed with 2.5 ml PBS and added to the T175 flask. Cells were incubated about 2 minutes with the diluted Trypsin/EDTA solution at 37° C., then were continuously incubated about 3 minutes at room temperature. 20 ml fresh medium were added to suspend the cells and transfer to a 50 ml tube. Cells were centrifuged down at 750 rpm for 5 minutes. The extra medium was removed and cells were resuspended in 6 ml External Buffer (137 mM NaCl, 4 mM KCl, 1.8 mM CaCl2, 1 mM MgCl2, 10 mM HEPES, 10 mM glucose, pH 7.4). Then cells were centrifuged again at 450 rpm for another 5 minutes. Finally cells were resuspended in 4 ml the External Buffer, cell number was counted using a hemacytometer. Cell suspension was diluted to 2.5×10^6 cells/ml with the External Buffer. 4 ml of the resuspended cells were added to the cell reservoir in IonWorks. The Internal solution used contains: 40 mM KCl, 100 mM K-Gluconate, 3.2 mM MgCl2, 2 mM CaCl2, 5 mM HEPES, pH 7.25 (adjusted with KOH). 5 mg Amphotericin B from 200 ul DMSO stock was added to 65 ml the Internal solution and mixed well to achieve electrical access to the interior of cells on the patch plate.
Compounds were prepared from 10 mM DMSO stock and diluted in the External Buffer to make 3× compound solution. […] of the 3× compound solution was transferred to a 384 well plate in Row A, B, C and D. PD11857 (Sigma-Aldrich), a reported hERG channel activator was used as activator positive control (final concentration 30 and 50 μM). hERG blocker dofetilide was used as blocker positive control (final concentration 100 nM). The final DMSO concentration in the IonWorks Quattro PatchPlate PPC plate (Cat#9000-0902, Molecular Devices) was 0.5%. Final compound concentration was 50 μM. Each compound was added to four wells of one PPC plate.
hERG currents were recorded on IonWorks Quattro (Molecular Devices). To record hERG current, the cells were clamped at −80 mV initially, then followed by a 5-s depolarization at +40 mV to activate the channels. Tail currents were measured during an ensuing return to −35 mV. Data analysis were done using IonWorks Quttro® System Software version 2.0.4.4. Data from wells with seal resistance less than 50 MΩ or hERG tail currents less than 0.1 nA were filtered out. […] Inhibitor hits were selected if hERG tail currents ratio (post/pre-compound) is less than mean-2SD of the average DMSO control.
To record hERG current, the cells were clamped at −80 mV initially, then followed by a 5-s depolarization at +40 mV to activate the channels (phase a in FIG. 10A). Tail currents were measured during an ensuing return to −35 mV for 2 seconds (phase b in FIG. 10A). Final holding potential at −70 mV (phase c in FIG. 10B).

HT29 cells = experiment: Label-free RWG biosensor (Epic) DMR assay, agonism mode, HT29 cells endogenously expressing hERG; type: cell-based, human
Procedure: (§1) Epic® wavelength interrogation system (Corning Inc., Corning, N.Y.) was used for whole cell sensing. This system consists of a temperature-control unit, an optical detection unit, and an on-board liquid handling unit with robotics. The detection unit is centered on integrated fiber optics, and enables kinetic measures of cellular responses with a time interval of ˜15 sec.
(§2) Cells were plated in 384-well Epic® cell culture treated plate (Corning Cat#5040) 16-20 hours before assay (15000 cells/well for HEK293 and HEK-hERG cells, 30000 cells/well for HT29 cells). For both HEK-hERG and its parental HEK293 cells, each well was coated with 10 μl 5 μg/ml fibronectin. One hour before assay, cells were washed twice on a BioTek ELx405 Select washer with Hank's Balanced Salt Solution (HBSS) containing 20 mM Hepes. Cells were incubated in 40 μl/well HBSS at 28° C. inside the Epic system for one hour. For each assay, a 2-min baseline was initiated, followed by addition of 10 μl compound solutions (5×) and the cell responses were recorded continuously for one hour.
(§3) All studies were carried out at a controlled temperature (28° C.). At least two independent sets of experiments, each with at least three replicates, were performed. […] All dose-dependent responses were analyzed using non-linear regression method with the GraphPad Prism 5.
Three different types of cells: human colon cancerous cell line HT-29, HEK293 and its engineered HEK-hERG cell lines were used. HT-29 is known to endogenously express hERG channels. HEK293 is a native cell line without endogenously expressed hERG channels, while HEK-hERG is an engineered HEK293 cells having stably expressed hERG channels. Mallotoxin, a newly discovered hERG activator, was used to activate hERG channels at or near physiological conditions (i.e., 1×HBSS buffered conditions).

[3] = tested on: mallotoxin DMR signal in HEK-hERG cells; type: cell-based, human
Description: A “molecule modulation index” or like terms is an index to display the ability of the molecule to modulate the biosensor output signals of the panels of markers acting on the panel of cells. The modulation index is generated by normalizing a specific biosensor output signal parameter of a response of a cell upon stimulation with a marker in the presence of a molecule against that in the absence of any molecule.
as §1, §2, §3
The DMR modulation index was generated by normalizing the mallotoxin DMR signal in either cell line in the presence of compound […] to its corresponding DMR signal in the absence of the compound, and the percentage of modulation was based on the amplitude of the mallotoxin DMR signal at a specific time (−18 min after stimulation for HEK-hERG cells, and ˜50 min after stimulation for HT29 cells, respectively). Mallotoxin is known to display polypharmacology. It is also known to be a protein kinase C (PKC) inhibitor; and PKC is a downstream signaling component of hERG activation. Thus, it would be difficult or almost impossible to assign the mode(s) of action of mallotoxin to be a hERG activator when either cell line is individually assayed with the label-free biosensor (i.e., Epic® system). […] However, combining the primary DMR profiles of a compound across the three cell lines tested with the modulation index of the compound against the mallotoxin responses in both HT29 and […] cells can correctly identify whether the compound is a hERG activator or not. The results shown in FIG. 1 indicate that indeed mallotoxin is a hERG activator; and the activation of hERG can result in detectable biosensor responses in the two hERG expressing cell lines.

[4] = 5 mM KCl, compound at 10 or 50 μM

T1 sequence (Q12809 whole entry): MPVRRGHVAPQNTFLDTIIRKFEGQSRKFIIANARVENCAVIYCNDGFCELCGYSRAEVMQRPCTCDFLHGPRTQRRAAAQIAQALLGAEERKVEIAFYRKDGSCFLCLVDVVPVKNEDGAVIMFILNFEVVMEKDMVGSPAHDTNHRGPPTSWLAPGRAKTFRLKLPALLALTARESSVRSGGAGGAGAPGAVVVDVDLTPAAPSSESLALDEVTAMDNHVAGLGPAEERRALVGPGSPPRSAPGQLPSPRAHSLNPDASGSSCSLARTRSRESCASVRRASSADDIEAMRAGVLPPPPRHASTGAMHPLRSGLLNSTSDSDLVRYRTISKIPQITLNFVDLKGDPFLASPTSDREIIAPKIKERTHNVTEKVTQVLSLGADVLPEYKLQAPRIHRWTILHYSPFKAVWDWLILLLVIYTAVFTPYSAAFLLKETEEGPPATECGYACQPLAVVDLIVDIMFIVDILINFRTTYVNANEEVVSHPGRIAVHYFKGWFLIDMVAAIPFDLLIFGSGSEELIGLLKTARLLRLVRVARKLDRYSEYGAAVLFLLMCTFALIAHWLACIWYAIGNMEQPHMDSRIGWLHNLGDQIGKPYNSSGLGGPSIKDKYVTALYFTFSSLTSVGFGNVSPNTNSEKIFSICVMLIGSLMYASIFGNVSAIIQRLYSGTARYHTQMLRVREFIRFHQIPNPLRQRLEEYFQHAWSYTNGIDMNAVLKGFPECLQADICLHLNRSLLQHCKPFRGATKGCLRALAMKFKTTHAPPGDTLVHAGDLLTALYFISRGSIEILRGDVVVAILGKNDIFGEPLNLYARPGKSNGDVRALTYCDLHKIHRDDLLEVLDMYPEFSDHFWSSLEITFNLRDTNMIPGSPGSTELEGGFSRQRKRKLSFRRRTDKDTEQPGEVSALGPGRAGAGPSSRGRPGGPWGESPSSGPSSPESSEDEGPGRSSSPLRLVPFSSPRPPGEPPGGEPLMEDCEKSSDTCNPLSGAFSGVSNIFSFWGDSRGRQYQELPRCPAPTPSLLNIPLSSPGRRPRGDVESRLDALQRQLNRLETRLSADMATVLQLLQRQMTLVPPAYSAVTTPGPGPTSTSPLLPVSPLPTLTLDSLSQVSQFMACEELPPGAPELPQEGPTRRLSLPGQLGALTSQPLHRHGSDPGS

| Compound | Rb+ signal in HEK-hERG cells (hERG channel [1]; [4]) | effect on hERG ion flux (Rb+ flux, FIG. 6) (hERG channel [1]) | effect on hERG tail current (hERG channel [2]) | effect on hERG current (hERG channel [2]) | DMR signal in HT29 cells (HT29 cells; compound at 10 μM) | score of modulation index in coordination, HEK-hERG coordinate ([3]; 10% modulation = 1 score unit) | modulation index against mallotoxin in HEK-hERG cells ([3]; compound 10 micromolar, mallotoxin 16 micromolar, amplitude 18 min after stimulation) | Rb+ signal in HEK-hERG cells (hERG channel [1]; 40 mM KCl, compound at 10 μM) | effect on hERG current (hERG channel [2]; listed as Mallotoxin) | DMR signal in HT29 cells (HT29 cells; compound at 16 micromolar) | modulation of the mallotoxin DMR signal in HEK-hERG cells ([3]; pretreatment with 16 micromolar compound, then 16 micromolar mallotoxin) |
| --- | --- | --- | --- | --- | --- | --- | --- | --- | --- | --- | --- |
| O=C(O)c1ccccc1Nc1cccc(C(F)(F)F)c1 [flufenamic acid] | small and dose-dependent increase | weak hERG ion flux activator | significantly increased | weak hERG current activator | robust DMR signals | 1 | ~+12% | – | – | – | – |
| CC(=O)c1c(O)c(C)c(O)c(Cc2c(O)c3c(c(C(=O)/C=C/c4ccccc4)c2O)OC(C)(C)C=C3)c1O [mallotoxin] | significant increase | strong hERG ion flux activator | significantly increases | significantly increases | – | – | – | obvious increase | strong hERG current activator | robust DMR signal | completely caused the desensitization |
